Counter-ions that a name gives are not always drawn. Like-named read-outs stand apart in the source and are kept apart here.
Test system: human whole blood
Type: cell-based
Conditions: both, 1 h
Procedure: In-vitro evaluation of the hemolytic influence of the preparations of this invention on human whole blood is determined as a further guide to selecting formulations with a low tendency to produce irritation around the site of injection. The hemolytic potential of a formulation on blood is evaluated by an assay of erythrocyte cytoplasmic marker enzyme, lactate dehydrogenase (LDH) which escapes from the leaky or ruptured erythrocytes into the plasma compartment of the blood. For the assay, blood is obtained from male or female Caucasian human volunteers of 18 to 65 years of age and stabilized with sodium heparin. A test formulation is mixed with an equal volume of human whole blood and incubated at 37° C. for about 1 hour. The mixture is then held at ambient temperature for 30 minutes followed by centrifugation at 1500 rpm for 10 min. The level of LDH in the supernatant is determined according to protocols known in the art. An upper limit titre is determined by measuring the LDH levels resulting from hemolysis by amiodarone hydrochloride, a compound known to result in vein irritation upon venous injection in clinical settings (PDR 1999, p. 3289). Amiodarone hydrochloride IV solution, when tested at 50 mg/mL and after dilution with 5% aqueous dextrose to 1.8 mg/mL can result in LDH values of about 8000 IU/L and about 700 IU/L, respectively.

CCCCc1oc2ccccc2c1C(=O)c1cc(I)c(OCCN(CC)CC)c(I)c1 [Amiodarone hydrochloride, amiodarone hydrochloride]
LDH values (1.8 mg/mL): about 700 IU/L | LDH values (50 mg/mL): about 8000 IU/L

Reference: patent US6726919B2, “Injectable dispersion of propofol” (RTP Pharma, Inc., priority 2000, dated 2004)
